Where two headings read alike, the source gives them in different places.
Assays:
[1] = PET/CT imaging of [18F]15; assay type: in vivo, Rj:NMRI-Foxn1^nu/nu mice; settings: Rj:NMRI-Foxn1^nu/nu, mouse, subcutaneous AR42J tumor, iv, 0.2 nmol, total radioactivity; for SUV at 25 min: 25 min post injection; for SUV at 1.5 h: 90 min post injection
Experimental: (§1) [^18F]6 in 10% ethanol–0.01 M PBS was administered intravenously to male Fox Chase SCID mice (CB.17 SCID) (11.0 ± 0.5 MBq, ∼11 nmol, ∼150 μL, n = 4) and healthy female C57BL/6JRj mice (11.3 ± 0.3 MBq, ∼11 nmol, ∼150 μL, n = 4) under 2% isoflurane anesthesia. The PET/CT image was acquired with Inveon PET/CT for 60 min followed by a 15 min static scan 4 h after injection of the tracer. The images of the dynamic scan were reconstructed to time frames 60 × 10, 10 × 60, 4 × 300, and 3 × 600 s. After the second PET imaging (t = 270 ± 1.9 min post injection, n = 4), the organs were harvested and the radioactivity in each tissue sample was measured with a γ-counter and reported as a percentage of injected dose per gram of tissue (% ID/g). [^18F]15 was formulated in 4% ethanol in 0.01 M PBS and administered intravenously (0.2 nmol, 0.80 ± 0.30 MBq; tracer: 150 μL; tracer + blocking dose: 200 μL) to AR42J tumor-bearing Rj:NMRI-Foxn1^nu/nu mice (n = 4) under 2% isoflurane anesthesia. PET/CT images were acquired with Molecubes PET (β-CUBE) coupled with a CT (X-CUBE) (MOLECUBES NV, Ghent, Belgium) with two mice being imaged at the same time under 2% isoflurane anesthesia. Images were reconstructed to time frames 30 × 10, 15 × 60, 4 × 300, and 5 × 600 s. Quantitative image analysis was done with Carimas software (v 2.10, Turku PET Centre, Turku, Finland). Spherical ROIs were hand-drawn based on anatomical CT data and PET signal for the desired organs. The results are presented as standardized uptake values (SUVs).
(§2) The standardized uptake values (SUVs) were determined from the PET image by drawing regions-of-interest (ROI) around selected organs (heart, liver, kidney, lung, muscle, urinary bladder) with Carimas software (version 2.10, Turku PET Centre, Turku, Finland ) and by measuring the ratio of radioactivity per unit volume of that ROI and normalized to the injected […]
dose. […]

subcutaneous AR42J tumor = experiment: PET/CT imaging of [18F]15; assay type: in vivo, Rj:NMRI-Foxn1^nu/nu mice; settings: i.v., 0.2 nmol
Experimental: as §1, §2
dose. […]

## C[C@@H](O)[C@@H]1NC(=O)[C@H](CCCCN)NC(=O)[C@@H](Cc2c[nH]c3ccccc23)NC(=O)[C@H](Cc2ccc(O)cc2)NC(=O)[C@@H](NC(=O)[C@@H](Cc2ccccc2)NC(=O)CCOCCOCCOCCOCCON=Cc2ccc(C(=O)NCCOCCOCCOCCNC(=O)OC3CCCc4cnnc(-c5ccc(CC(=O)NCC[N+](C)(C)C[B-](F)(F)F)cc5)c4CC3)cc2)CSSC[C@@H](C(=O)N[C@H](CO)[C@@H](C)O)NC1=O (some centres unmarked) [[^18F]15]
[1]; coadministration of octreotide, read-out: tumor SUV, blocked
  SUV at 25 min: 0.76 ± 0.04 SUV
[1]; read-out: tumor SUV, baseline
  SUV at 25 min: 1.01 ± 0.07 SUV
[1]; n = 2, coadministration of octreotide, read-out: tumor SUV, blocking
  SUV at 1.5 h: 0.76 ± 0.03 SUV
[1]; n = 2, read-out: tumor SUV, baseline
  SUV at 1.5 h: 0.82 ± 0.14 SUV
Subcutaneous AR42J tumor
  time of peak radioactivity in tumor (TAC): 20 to 30 min

— publication PMC9305971, “Development of [^18F]AmBF3 Tetrazine for Radiolabeling of Peptides: Preclinical Evaluation and PET Imaging of [^18F]AmBF3-PEG7-Tyr^3-Octreotide in an AR42J Pancreatic Carcinoma Model” (Bioconjugate Chemistry, 2022)
